Test results: patent US8895743B2, “Methysergide derivatives” (Map Pharmaceuticals, Inc., priority 2012, dated 2014)

Columns and labels:
Adrenergic α1A = target: T1, Adrenergic α1A (Homo sapiens, UniProt P35348); assay: Aequorin agonist/antagonist assay, adrenergic α1A; assay type: cell-based; conditions: CHO-K1 mAeq, human receptor, antagonist mode; read-out: Activity (Antagonism: IC50), Adrenergic a1A
T1 construct: expressed in transfected cells; host or cells: CHO-K1 mAeq
Method: (§1) Receptor agonist/[…] assays were performed using 2-CF3-sergide. Table 1 summarizes the cell lines (CHO-K1/HEK293 transfected with relevant human receptor) and the assays performed to detect any agonist or antagonist activity.
(§2) Aequorin assays were conducted to monitor activity for 8′OH-2CF3-dihydroergotamine (8′OH-2CF3-DHE) against the receptors indicated in Table 1 above (except for mGlu3 and mGlu5). CHO-K1 cells coexpressing mitochondrial apoaequorin and the recombinant human receptor of interest were grown to mid-log phase in culture media without antibiotics and then detached with PBS-EDTA, centrifuged and resuspended in assay buffer (DMEM/HAM's F12 with HEPES, without phenol red+0.1% BSA, protease free) at a concentration of 1×10^6 cell/mL. […]
(§3) 50 μL of the cell suspension was mixed with 50 μL of test or reference agonist in a 96-well plate. The resulting emission of light was recorded using Hamamatsu Functional Drug Screening System 6000 (FDSS 6000) luminometer. […]
(§4) To standardize the emission of recorded light (and determine of the “100% signal”) across plates and across different experiments, some wells contained 100 μM digitonin or a saturating concentration of ATP (20 μM).

Adrenergic α1B = target: T2, Adrenergic α1B (Homo sapiens, UniProt P35368); assay: Aequorin agonist/antagonist assay, adrenergic α1B; assay type: cell-based; conditions: CHO-K1 mAeq, human receptor, antagonist mode; read-out: Activity (Antagonism: IC50), Adrenergic a1B
T2 construct: expressed in transfected cells; host or cells: CHO-K1 mAeq
Method: as §1, §2, §3, §4

Adrenergic α1D = target: T3, Adrenergic α1D (Homo sapiens, UniProt P25100); assay: Aequorin agonist/antagonist assay, adrenergic α1D; assay type: cell-based; conditions: CHO-K1 mAeq, human receptor, antagonist mode; read-out: Activity (Antagonism: IC50), Adrenergic a1D
T3 construct: expressed in transfected cells; host or cells: CHO-K1 mAeq
Method: as §1, §2, §3, §4

Adrenergic α2A = target: T4, Adrenergic α2A (Homo sapiens, UniProt P08913); assay: GTPγ[35S] assay, adrenergic α2A; assay type: biochemical; conditions: CHO-K1 human receptor membranes, antagonist mode; read-out: Activity (Antagonism: IC50), Adrenergic a2A
T4 construct: expressed in transfected cells; host or cells: CHO-K1 (membrane extracts)
Method: as §1
(§5) GTPγS studies were conducted to monitor agonist activity for 8′OH-2CF3-dihydroergotamine (8′OH-2CF3-DHE) against the receptors indicated in Table 1 above. Reagents used were the following: Assay buffer (20 mM HEPES, pH 7.4; 100 mM NaCl; 10 μg/mL saponin; 30 mM MgCl2); Membranes (recombinant human receptor membrane extracts were thawed on ice and diluted in assay buffer to give 1000 μg/mL ([…]) and kept on ice); GDP (diluted in assay buffer to give 30 μM solution (3 μM final concentration); beads (PVT-WGA (Amersham, RPNQ001), diluted in assay buffer at 25 mg/mL (0.25 mg/10 μL)); GTPγ^35S (Perkin Elmer, NEG030X), diluted in assay buffer to give 0.1 nM (final concentration); and ligand (agonist/antagonist diluted in assay buffer).
(§6) Membranes were mixed with GDP (1:1) and incubated for at least 15 minutes on ice. In parallel GTPγ^35S was mixed with the beads (1:1) just before starting the reaction. […] The plates were then centrifuged for 10 minutes at 2000 rpm and incubated at room temperature for 1 hour and counted for 1 min/well with a Perkin Elmer TopCount reader.

Adrenergic α2B = target: T5, Adrenergic α2B (Homo sapiens, UniProt P18089); assay: GTPγ[35S] assay, adrenergic α2B; assay type: biochemical; conditions: CHO-K1 human receptor membranes, antagonist mode; read-out: Activity (Antagonism: IC50), Adrenergic a2B
T5 construct: expressed in transfected cells; host or cells: CHO-K1 (membrane extracts)
Method: as §1, §5, §6

Adrenergic α2C = target: T6, Adrenergic α2C (Homo sapiens, UniProt P18825); assay: GTPγ[35S] assay, adrenergic α2C; assay type: biochemical; conditions: CHO-K1 human receptor membranes, antagonist mode; read-out: Activity (Antagonism: IC50), Adrenergic a2C
T6 construct: expressed in transfected cells; host or cells: CHO-K1 (membrane extracts)
Method: as §1, §5, §6

Dopamine D1 = target: T7, Dopamine D1 (Homo sapiens, UniProt P21728); assay: cAMP HTRF assay, dopamine D1; assay type: cell-based; conditions: CHO-K1, human receptor, agonist mode; read-out: Activity (Agonism: EC50), D1
T7 construct: expressed in transfected cells; host or cells: CHO-K1
Method: as §1
(§7) cAMP HTRF (Gs) studies were conducted to monitor activity for 8′OH-2CF3-dihydroergotamine (8′OH-2CF3-DHE) against the receptors indicated in Table 1 above. […] Lysis buffer was added and after a 1 hour incubation, cAMP concentrations was determined according to the manufacturer specification with the HTRF kit. […] Lysis buffer was added and after a 1 hour incubation, cAMP concentrations were determined according to the manufacturer specification, with the HTRF kit.
(§8) cAMP HTRF (Gi) studies were conducted to monitor activity for 8′OH-2CF3-dihydroergotamine (8′OH-2CF3-DHE) against the receptors indicated in Table 1 above. […] Lysis buffer was added and after a 1 hour incubation, cAMP concentrations was determined according to the manufacturer specification with the HTRF kit. […] Lysis buffer was added and after a 1 hour incubation, cAMP concentrations were determined according to the manufacturer specification, with the HTRF kit.

Dopamine D2L = target: T8, Dopamine D2L (Homo sapiens, UniProt P14416); assay: GTPγ[35S] assay, dopamine D2L; assay type: biochemical
T8 construct: expressed in transfected cells; host or cells: CHO-K1 (membrane extracts)
Method: as §1, §5, §6

Dopamine D3 = target: T9, Dopamine D3 (Homo sapiens, UniProt P35462); assay: GTPγ[35S] assay, dopamine D3; assay type: biochemical
T9 construct: expressed in transfected cells; host or cells: CHO-K1 (membrane extracts)
Method: as §1, §5, §6

Dopamine D4 = target: T10, Dopamine D4 (Homo sapiens, UniProt P21917); assay: GTPγ[35S] assay, dopamine D4; assay type: biochemical
T10 construct: expressed in transfected cells; host or cells: CHO-K1 (membrane extracts)
Method: as §1, §5, §6

Serotonin 5-HT1A = target: T11, Serotonin 5-HT1A (Homo sapiens, UniProt P08908); assay: GTPγ[35S] assay, serotonin 5-HT1A; assay type: biochemical
T11 construct: expressed in transfected cells; host or cells: CHO-K1 (membrane extracts)
Method: as §1, §5, §6

Serotonin 5-HT1B = target: T12, Serotonin 5-HT1B (Homo sapiens, UniProt P28222); assay: GTPγ[35S] assay, serotonin 5-HT1B; assay type: biochemical; conditions: CHO-K1 human receptor membranes, agonist mode; read-out: Activity (Agonism: EC50), 5-HT1B
T12 construct: expressed in transfected cells; host or cells: CHO-K1 (membrane extracts)
Method: as §1, §5, §6

Serotonin 5-HT1D = target: T13, Serotonin 5-HT1D (Homo sapiens, UniProt P28221); assay: GTPγ[35S] assay, serotonin 5-HT1D; assay type: biochemical; conditions: CHO-K1 human receptor membranes, agonist mode; read-out: Activity (Agonism: EC50), 5-HT1D
T13 construct: expressed in transfected cells; host or cells: CHO-K1 (membrane extracts)
Method: as §1, §5, §6

Serotonin 5-HT1F = target: T14, Serotonin 5-HT1F (Homo sapiens, UniProt P30939); assay: cAMP HTRF assay, serotonin 5-HT1F; assay type: cell-based; conditions: CHO-K1, human receptor, agonist mode; read-out: Activity (Agonism: EC50), 5-HT1F
T14 construct: expressed in transfected cells; host or cells: CHO-K1
Method: as §1, §7, §8

Serotonin 5-HT2A = target: T15, Serotonin 5-HT2A (Homo sapiens, UniProt P28223); assay: Aequorin assay, serotonin 5-HT2A; assay type: cell-based; conditions: CHO-K1 mAeq Gα16, human receptor, agonist mode; read-out: Activity (Agonism: EC50), 5-HT2A
T15 construct: expressed in transfected cells; host or cells: CHO-K1 mAeq Gα16
Method: as §1, §2, §3, §4

Serotonin 5-HT2B = target: T16, Serotonin 5-HT2B (Homo sapiens, UniProt P41595); assay: Aequorin assay, serotonin 5-HT2B; assay type: cell-based
T16 construct: expressed in transfected cells; host or cells: CHO-K1 mAeq Gα16
Method: as §1, §2, §3, §4

Serotonin 5-HT3 = target: T17, Serotonin 5-HT3 (Homo sapiens, UniProt P46098); assay: Aequorin assay, serotonin 5-HT3; assay type: cell-based; conditions: HEK-293 mAeq, human receptor, antagonist mode; read-out: Activity (Antagonism: IC50), 5-HT3
T17 construct: expressed in transfected cells; host or cells: HEK-293 mAeq
Method: as §1, §2, §3, §4

mGlu7 = target: T18, mGlu7 (Homo sapiens, UniProt Q14831); assay: cAMP HTRF assay, mGluR7; assay type: cell-based; conditions: CHO-K1, human receptor, agonist mode; read-out: Activity (Agonism: EC50), mGlu7
T18 construct: expressed in transfected cells; host or cells: CHO-K1
Method: as §1, §7, §8

[1] = tested on: VIP/PACAP (PAC1/VPAC/VPAC2); assay: Aequorin assays, VIP/PACAP receptors; assay type: cell-based; conditions: CHO-AEQ, human receptors
Method: as §1, §2, §3, §4

[2] = tested on: Cholecystokinin (CCK1/CCK2); assay: Aequorin assays, cholecystokinin receptors; assay type: cell-based; conditions: CHO-AEQ, human receptors
Method: as §1, §2, §3, §4

Somatostatin (SST1~SSTS) = assay: GTPγ[35S] assays, somatostatin receptors; assay type: biochemical; conditions: CHO-K1 human receptor membranes
Method: as §1, §5, §6

Calcitonin (AM1/AM2) = assay: cAMP HTRF assays, calcitonin AM1/AM2 receptors; assay type: cell-based; conditions: CHO-K1, human receptors
Method: as §1, §7, §8

Opioid (OP1/OP2/OP3) = assay: GTPγ[35S] assays, opioid receptors; assay type: biochemical; conditions: CHO-K1 human receptor membranes
Method: as §1, §5, §6

Calcitonin (CGRP) = target: T19, Calcitonin (CGRP) (Homo sapiens, UniProt O60894+Q16602); assay: Aequorin assay, CGRP receptor; assay type: cell-based; conditions: CHO-AEQ
T19 construct: expressed in transfected cells; host or cells: CHO-AEQ
Method: as §1, §2, §3, §4

Orexin (OX1/OX2) = assay: Aequorin assays, orexin receptors; assay type: cell-based; conditions: CHO-AEQ, human receptors
Method: as §1, §2, §3, §4

Neurokinin (NK1/NK2/NK3) = assay: Aequorin assays, neurokinin receptors; assay type: cell-based; conditions: CHO-AEQ, human receptors, antagonist mode; cell names OP2; read-out: Activity (Antagonism: IC50), OP2, in row Neurokinin (NK1/NK2/NK3)
Method: as §1, §2, §3, §4

Adenosine A2a = target: T20, Adenosine A2a (Homo sapiens, UniProt P29274); assay: cAMP HTRF assay, adenosine A2a; assay type: cell-based; conditions: HEK293, human receptor
T20 construct: expressed in transfected cells
Method: as §1, §7, §8

T10 sequence (P21917 whole entry): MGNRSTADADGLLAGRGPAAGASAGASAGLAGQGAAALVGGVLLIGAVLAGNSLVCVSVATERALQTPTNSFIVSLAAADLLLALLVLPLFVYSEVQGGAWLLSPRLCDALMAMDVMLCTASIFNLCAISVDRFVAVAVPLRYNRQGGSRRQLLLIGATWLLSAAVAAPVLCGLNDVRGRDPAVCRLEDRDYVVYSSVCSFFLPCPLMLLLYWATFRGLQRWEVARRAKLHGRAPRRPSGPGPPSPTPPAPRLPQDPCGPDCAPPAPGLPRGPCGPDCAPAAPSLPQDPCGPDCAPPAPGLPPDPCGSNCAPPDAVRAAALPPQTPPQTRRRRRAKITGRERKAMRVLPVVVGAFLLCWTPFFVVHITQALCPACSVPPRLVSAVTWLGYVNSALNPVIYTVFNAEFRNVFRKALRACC
T9 sequence (P35462 whole entry): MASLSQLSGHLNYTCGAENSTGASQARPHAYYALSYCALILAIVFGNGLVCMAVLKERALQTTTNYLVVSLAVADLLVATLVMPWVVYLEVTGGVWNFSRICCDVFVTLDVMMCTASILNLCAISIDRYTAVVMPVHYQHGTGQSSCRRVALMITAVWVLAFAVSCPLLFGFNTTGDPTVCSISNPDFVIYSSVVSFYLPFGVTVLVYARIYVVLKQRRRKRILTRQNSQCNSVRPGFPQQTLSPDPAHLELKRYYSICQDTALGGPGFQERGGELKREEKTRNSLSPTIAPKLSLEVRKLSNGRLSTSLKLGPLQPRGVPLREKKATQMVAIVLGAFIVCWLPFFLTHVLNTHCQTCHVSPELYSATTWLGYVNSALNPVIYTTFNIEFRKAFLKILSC
T8 sequence (P14416 whole entry): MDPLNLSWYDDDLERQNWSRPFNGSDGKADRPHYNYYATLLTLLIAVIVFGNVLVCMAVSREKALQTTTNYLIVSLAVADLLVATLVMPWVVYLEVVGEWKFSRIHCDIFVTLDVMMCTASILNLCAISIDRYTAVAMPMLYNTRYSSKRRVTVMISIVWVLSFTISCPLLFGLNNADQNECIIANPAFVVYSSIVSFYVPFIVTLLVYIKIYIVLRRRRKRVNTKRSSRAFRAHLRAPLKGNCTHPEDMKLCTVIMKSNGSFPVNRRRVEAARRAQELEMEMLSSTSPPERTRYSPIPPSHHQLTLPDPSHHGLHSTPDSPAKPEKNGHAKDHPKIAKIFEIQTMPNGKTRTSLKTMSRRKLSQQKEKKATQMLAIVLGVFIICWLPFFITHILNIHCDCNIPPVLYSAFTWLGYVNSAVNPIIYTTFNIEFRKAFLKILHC
T11 sequence (P08908 whole entry): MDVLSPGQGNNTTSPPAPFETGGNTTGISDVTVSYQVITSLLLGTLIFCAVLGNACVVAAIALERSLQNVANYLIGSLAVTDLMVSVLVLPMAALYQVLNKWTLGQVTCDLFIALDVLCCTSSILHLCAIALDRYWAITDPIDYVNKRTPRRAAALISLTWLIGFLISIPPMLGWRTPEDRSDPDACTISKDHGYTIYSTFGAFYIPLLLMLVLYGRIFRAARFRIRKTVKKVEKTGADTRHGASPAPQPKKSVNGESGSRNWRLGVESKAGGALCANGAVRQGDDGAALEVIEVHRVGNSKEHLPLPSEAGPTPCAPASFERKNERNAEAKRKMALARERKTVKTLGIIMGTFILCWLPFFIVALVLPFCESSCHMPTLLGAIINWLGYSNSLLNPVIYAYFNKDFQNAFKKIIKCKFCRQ
T16 sequence (P41595 whole entry): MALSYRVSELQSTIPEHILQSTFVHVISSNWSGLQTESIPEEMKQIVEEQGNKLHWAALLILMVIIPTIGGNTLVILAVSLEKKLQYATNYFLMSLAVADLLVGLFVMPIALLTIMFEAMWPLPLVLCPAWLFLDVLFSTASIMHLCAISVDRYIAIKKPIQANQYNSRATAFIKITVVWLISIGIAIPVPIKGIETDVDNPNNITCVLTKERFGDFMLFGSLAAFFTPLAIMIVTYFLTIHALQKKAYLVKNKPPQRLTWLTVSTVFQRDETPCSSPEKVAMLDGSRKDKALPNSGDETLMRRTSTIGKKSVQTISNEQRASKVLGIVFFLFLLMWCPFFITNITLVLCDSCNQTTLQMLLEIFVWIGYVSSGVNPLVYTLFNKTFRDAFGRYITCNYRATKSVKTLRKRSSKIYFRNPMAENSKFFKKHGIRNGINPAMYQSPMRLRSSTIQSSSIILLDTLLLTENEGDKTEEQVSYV
T19 sequence (Q16602 23-461): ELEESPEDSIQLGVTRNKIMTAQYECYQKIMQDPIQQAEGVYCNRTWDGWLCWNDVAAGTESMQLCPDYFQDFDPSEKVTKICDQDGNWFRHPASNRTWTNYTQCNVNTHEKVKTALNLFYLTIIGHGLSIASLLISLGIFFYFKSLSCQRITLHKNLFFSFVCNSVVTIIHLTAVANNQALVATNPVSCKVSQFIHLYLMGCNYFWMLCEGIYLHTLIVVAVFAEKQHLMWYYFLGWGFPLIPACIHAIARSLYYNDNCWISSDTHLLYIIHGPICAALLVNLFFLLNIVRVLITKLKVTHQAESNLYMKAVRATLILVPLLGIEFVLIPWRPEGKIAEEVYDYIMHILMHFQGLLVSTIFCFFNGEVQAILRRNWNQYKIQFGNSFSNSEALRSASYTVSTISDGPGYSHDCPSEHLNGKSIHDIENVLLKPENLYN
T19 sequence (O60894 27-148 partner): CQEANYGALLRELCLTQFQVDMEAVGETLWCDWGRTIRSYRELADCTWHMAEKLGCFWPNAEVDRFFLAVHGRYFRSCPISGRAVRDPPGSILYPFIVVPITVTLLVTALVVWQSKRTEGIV
T5 sequence (P18089 whole entry): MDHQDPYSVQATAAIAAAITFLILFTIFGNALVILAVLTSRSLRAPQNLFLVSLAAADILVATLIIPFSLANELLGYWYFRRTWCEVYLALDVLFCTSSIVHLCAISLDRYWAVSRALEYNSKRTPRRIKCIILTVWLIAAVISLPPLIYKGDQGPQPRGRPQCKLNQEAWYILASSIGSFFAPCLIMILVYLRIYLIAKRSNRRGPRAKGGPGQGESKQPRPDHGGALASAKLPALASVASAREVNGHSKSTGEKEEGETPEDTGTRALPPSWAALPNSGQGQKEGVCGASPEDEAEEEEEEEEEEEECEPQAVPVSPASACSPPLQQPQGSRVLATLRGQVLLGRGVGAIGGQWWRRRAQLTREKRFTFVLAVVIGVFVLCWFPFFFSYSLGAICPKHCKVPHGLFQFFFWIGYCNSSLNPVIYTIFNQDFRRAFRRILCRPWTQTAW
T13 sequence (P28221 whole entry): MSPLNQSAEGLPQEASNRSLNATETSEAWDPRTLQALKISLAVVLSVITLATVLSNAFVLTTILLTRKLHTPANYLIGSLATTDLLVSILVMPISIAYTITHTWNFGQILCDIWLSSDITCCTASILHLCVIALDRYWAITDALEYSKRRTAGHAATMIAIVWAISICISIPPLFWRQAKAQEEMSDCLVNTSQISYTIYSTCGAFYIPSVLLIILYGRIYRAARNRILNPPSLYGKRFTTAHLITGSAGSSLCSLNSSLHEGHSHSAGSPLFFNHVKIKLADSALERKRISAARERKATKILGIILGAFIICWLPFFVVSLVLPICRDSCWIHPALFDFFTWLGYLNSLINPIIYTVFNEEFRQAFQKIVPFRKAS
T6 sequence (P18825 whole entry): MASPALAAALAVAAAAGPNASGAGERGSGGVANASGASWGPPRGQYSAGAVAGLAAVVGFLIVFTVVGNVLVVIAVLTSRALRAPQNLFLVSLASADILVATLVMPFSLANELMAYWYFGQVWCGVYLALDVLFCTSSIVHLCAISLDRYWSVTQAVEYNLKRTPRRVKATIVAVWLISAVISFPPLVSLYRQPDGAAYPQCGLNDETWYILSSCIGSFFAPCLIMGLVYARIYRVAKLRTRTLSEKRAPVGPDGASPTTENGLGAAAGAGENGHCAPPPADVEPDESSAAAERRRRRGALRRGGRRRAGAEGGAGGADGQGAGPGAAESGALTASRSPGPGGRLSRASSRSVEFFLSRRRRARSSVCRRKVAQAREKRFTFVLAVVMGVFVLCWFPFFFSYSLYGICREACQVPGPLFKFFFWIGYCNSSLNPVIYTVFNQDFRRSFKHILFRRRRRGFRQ
T3 sequence (P25100 whole entry): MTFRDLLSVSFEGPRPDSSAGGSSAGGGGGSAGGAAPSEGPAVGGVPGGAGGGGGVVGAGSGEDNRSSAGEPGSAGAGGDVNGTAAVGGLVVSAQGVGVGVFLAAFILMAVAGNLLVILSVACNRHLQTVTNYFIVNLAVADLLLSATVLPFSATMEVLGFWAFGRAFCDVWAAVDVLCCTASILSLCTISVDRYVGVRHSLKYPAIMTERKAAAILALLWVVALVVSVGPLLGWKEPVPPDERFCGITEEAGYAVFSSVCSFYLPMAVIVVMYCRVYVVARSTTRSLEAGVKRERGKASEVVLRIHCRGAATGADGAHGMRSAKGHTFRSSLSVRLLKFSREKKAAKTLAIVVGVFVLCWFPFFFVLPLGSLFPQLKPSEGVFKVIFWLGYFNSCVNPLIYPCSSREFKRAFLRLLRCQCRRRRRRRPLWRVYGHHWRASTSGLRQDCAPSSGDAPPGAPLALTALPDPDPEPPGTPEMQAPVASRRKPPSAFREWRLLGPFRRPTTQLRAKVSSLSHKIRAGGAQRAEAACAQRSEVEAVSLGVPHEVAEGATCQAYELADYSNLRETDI

Compound: CC[C@@H](CO)NC(=O)[C@@H]1C=C2c3cccc4[nH]c(C(F)(F)F)c(c34)C[C@H]2N(C)C1 [2-CF3-sergide]
- IC50 (Adrenergic α1A): > 10000 nM
- IC50 (Adrenergic α1B): > 1000 nM
- IC50 (Adrenergic α1D): 38 nM
- IC50 (Adrenergic α2A): > 10000 nM
- IC50 (Adrenergic α2B): > 1000 nM
- IC50 (Adrenergic α2C): > 10000 nM
- EC50 (Dopamine D1): 257 nM
- IC50 (Dopamine D2L; CHO-K1 human receptor membranes, antagonist mode, read-out: Activity (Antagonism: IC50), D2L): > 1000 nM
- Receptor activity at the D2L dopaminergic receptor (in words) (Dopamine D2L; summary of Table 2): receptor antagonism
- IC50 (Dopamine D3; CHO-K1 human receptor membranes, antagonist mode, read-out: Activity (Antagonism: IC50), D3): > 1000 nM
- Receptor activity at the D3 dopaminergic receptor (in words) (Dopamine D3; summary of Table 2): receptor antagonism
- IC50 (Dopamine D4; CHO-K1 human receptor membranes, antagonist mode, read-out: Activity (Antagonism: IC50), D4): > 1000 nM
- Receptor activity at the D4 dopaminergic receptor (in words) (Dopamine D4; summary of Table 2): receptor antagonism
- EC50 (Serotonin 5-HT1A; CHO-K1 human receptor membranes, agonist mode, read-out: Activity (Agonism: EC50), 5-HT1A): 258 nM
- Receptor activity on the 5-HT1A receptor (in words) (Serotonin 5-HT1A; summary of Table 2): agonistic activity
- EC50 (Serotonin 5-HT1B): 128 nM
- EC50 (Serotonin 5-HT1D): 98 nM
- EC50 (Serotonin 5-HT1F): 254 nM
- EC50 (Serotonin 5-HT2A): 1100 nM
- IC50 (Serotonin 5-HT2B; CHO-K1 mAeq Gα16, human receptor, antagonist mode, read-out: Activity (Antagonism: IC50), 5-HT2B): 42 nM
- Receptor activity at the 5-HT2B receptor (in words) (Serotonin 5-HT2B; summary of Table 2): full receptor antagonism
- IC50 (Serotonin 5-HT3): > 1000 nM
- EC50 (mGlu7): 46.5 nM
- Activity (Agonism: EC50; Antagonism: IC50), VIP/PACAP (PAC1/VPAC/VPAC2) [1]: Inactive
- Activity (Agonism: EC50; Antagonism: IC50), Cholecystokinin (CCK1/CCK2) [2]: Inactive
- Activity (Agonism: EC50; Antagonism: IC50), Somatostatin (SST1~SSTS) (Somatostatin (SST1~SSTS)): Inactive
- Activity (Agonism: EC50; Antagonism: IC50), Calcitonin (AM1/AM2) (Calcitonin (AM1/AM2)): Inactive
- Activity (Agonism: EC50; Antagonism: IC50), Opioid (OP1/OP2/OP3) (Opioid (OP1/OP2/OP3)): Inactive
- Activity (Agonism: EC50; Antagonism: IC50), Calcitonin (CGRP) (Calcitonin (CGRP)): Inactive
- Activity (Agonism: EC50; Antagonism: IC50), Orexin (OX1/OX2) (Orexin (OX1/OX2)): Inactive
- IC50 (Neurokinin (NK1/NK2/NK3)): > 1000 nM
- Activity (Agonism: EC50; Antagonism: IC50), Adenosine A2a (Adenosine A2a): Inactive
